# In ChEMBL document CHEMBL1150207, “Cytotoxicities of some flavonoid analogues” (1991):
# Experiments:
# Type in all cases: functional
# [1] = test system: MCF7; assay: Cytotoxicity against human MCF7 cells after 6 days by MTT assay; conditions: MCF7, 144 h, read-out: ED50 (the source's name)
# [2] = test system: HT-29; assay: Cytotoxicity against human HT-29 cells after 6 days by MTT assay; conditions: HT-29, 144 h, read-out: ED50 (the source's name)
# [3] = test system: A549; assay: Cytotoxicity against human A549 cells after 6 days by MTT assay; conditions: A549, 144 h, read-out: ED50 (the source's name)
# [4] = test system: Malme-3M; assay: Cytotoxicity against human MALME-3M cells after 6 days by MTT assay; conditions: 144 h, read-out: ED50 (the source's name)
# [5] = test system: SK-MEL; assay: Cytotoxicity against human SK-MEL cells after 6 days by MTT assay; conditions: 144 h, read-out: ED50 (the source's name)
smiles,measurement,setting,value
COc1cc(-c2cc(=O)c3ccc(O)cc3o2)cc(OC)c1OC,EC50,[1],> 25 µg/mL
same,EC50,[2],> 25 µg/mL
same,EC50,[3],> 25 µg/mL
same,EC50,[4],> 25 µg/mL
same,EC50,[5],> 25 µg/mL
CC(=O)Nc1ccc(-c2cc(=O)c3c(OC(C)=O)cc(OC(C)=O)cc3o2)cc1,EC50,[1],1.78 µg/mL
same,EC50,[2],17.4 µg/mL
same,EC50,[3],22 µg/mL
same,EC50,[4],> 25 µg/mL
same,EC50,[5],14 µg/mL
O=c1cc(-c2ccc([N+](=O)[O-])cc2)oc2cc(O)cc(O)c12,EC50,[1],6.9 µg/mL
same,EC50,[2],3.34 µg/mL
same,EC50,[3],4.19 µg/mL
same,EC50,[4],> 25 µg/mL
same,EC50,[5],4.87 µg/mL
COc1cc(-c2cc(=O)c3ccc(O)c(O)c3o2)cc(OC)c1O,EC50,[1],> 25 µg/mL
same,EC50,[2],5.12 µg/mL
same,EC50,[3],> 25 µg/mL
same,EC50,[4],> 25 µg/mL
same,EC50,[5],6.33 µg/mL
Nc1ccc(-c2cc(=O)c3cc(O)ccc3o2)cc1,EC50,[1],> 25 µg/mL
same,EC50,[2],2.65 µg/mL
same,EC50,[3],2.72 µg/mL
same,EC50,[4],> 25 µg/mL
same,EC50,[5],2.03 µg/mL
COC(=O)c1c(-c2ccc(OC)c(OC)c2)oc2ccccc2c1=O,EC50,[1],> 25 µg/mL
same,EC50,[2],> 25 µg/mL
same,EC50,[3],> 25 µg/mL
same,EC50,[4],> 25 µg/mL
same,EC50,[5],> 25 µg/mL
COC(=O)c1c(-c2ccc(OCc3ccccc3)cc2)oc2cc(OC)ccc2c1=O,EC50,[1],5.16 µg/mL
same,EC50,[2],5.42 µg/mL
same,EC50,[3],20.4 µg/mL
same,EC50,[4],> 25 µg/mL
same,EC50,[5],> 25 µg/mL
COc1cc(-c2cc(=O)c3ccc(O)c(O)c3o2)cc(OC)c1OC,EC50,[1],1.11 µg/mL
same,EC50,[2],3.66 µg/mL
same,EC50,[3],5.27 µg/mL
same,EC50,[4],> 25 µg/mL
same,EC50,[5],> 25 µg/mL
Nc1ccc(-c2cc(=O)c3ccc(O)cc3o2)cc1,EC50,[1],> 25 µg/mL
same,EC50,[2],4.71 µg/mL
same,EC50,[3],8.87 µg/mL
same,EC50,[4],> 25 µg/mL
same,EC50,[5],6.59 µg/mL
COC(=O)c1c(-c2ccc(OCc3ccccc3)cc2)oc2ccccc2c1=O,EC50,[1],> 25 µg/mL
same,EC50,[2],> 25 µg/mL
same,EC50,[3],> 25 µg/mL
same,EC50,[4],> 25 µg/mL
same,EC50,[5],> 25 µg/mL
COc1cc(OC)cc(-c2oc3ccccc3c(=O)c2C(=O)O)c1,EC50,[1],> 25 µg/mL
same,EC50,[2],> 25 µg/mL
same,EC50,[3],> 25 µg/mL
same,EC50,[4],> 25 µg/mL
same,EC50,[5],> 25 µg/mL
O=c1cc(-c2cccc(O)c2)oc2c(O)c(O)ccc12,EC50,[1],3.71 µg/mL
same,EC50,[2],4.18 µg/mL
same,EC50,[3],4.65 µg/mL
same,EC50,[4],4.8 µg/mL
same,EC50,[5],3.66 µg/mL
COC(=O)c1c(-c2ccc(Br)cc2)oc2ccccc2c1=O,EC50,[1],> 25 µg/mL
same,EC50,[2],> 25 µg/mL
same,EC50,[3],> 25 µg/mL
same,EC50,[4],> 25 µg/mL
same,EC50,[5],> 25 µg/mL
COC(=O)c1c(-c2ccc(OC)cc2)oc2ccccc2c1=O,EC50,[1],> 25 µg/mL
same,EC50,[2],> 25 µg/mL
same,EC50,[3],> 25 µg/mL
same,EC50,[4],> 25 µg/mL
same,EC50,[5],> 25 µg/mL
COC(=O)c1c(-c2cc(OC)c(OC)c(OC)c2)oc2ccccc2c1=O,EC50,[1],> 25 µg/mL
same,EC50,[2],> 25 µg/mL
same,EC50,[3],> 25 µg/mL
same,EC50,[4],> 25 µg/mL
same,EC50,[5],> 25 µg/mL
COc1cc(-c2cc(=O)c3ccc(OC(C)=O)cc3o2)cc(OC)c1O[Si](C)(C)C(C)(C)C,EC50,[1],4.19 µg/mL
same,EC50,[2],1.94 µg/mL
same,EC50,[3],2.9 µg/mL
same,EC50,[4],2.95 µg/mL
same,EC50,[5],0.8 µg/mL
O=c1cc(-c2cccc(O)c2)oc2cc(O)ccc12,EC50,[1],> 25 µg/mL
same,EC50,[2],> 25 µg/mL
same,EC50,[3],> 25 µg/mL
same,EC50,[4],> 25 µg/mL
same,EC50,[5],5.11 µg/mL
COC(=O)c1c(-c2ccc(O)cc2)oc2ccc(OC)cc2c1=O,EC50,[1],> 25 µg/mL
same,EC50,[2],> 25 µg/mL
same,EC50,[3],> 25 µg/mL
same,EC50,[4],> 25 µg/mL
same,EC50,[5],18.7 µg/mL
COC(=O)c1c(-c2ccc([N+](=O)[O-])cc2)oc2ccccc2c1=O,EC50,[1],> 25 µg/mL
same,EC50,[2],> 25 µg/mL
same,EC50,[3],> 25 µg/mL
same,EC50,[4],> 25 µg/mL
same,EC50,[5],> 25 µg/mL
COc1ccc2oc(-c3cc(OC)c(OC)c(OC)c3)cc(=O)c2c1,EC50,[1],> 25 µg/mL
same,EC50,[2],> 25 µg/mL
same,EC50,[3],> 25 µg/mL
same,EC50,[4],> 25 µg/mL
same,EC50,[5],> 25 µg/mL
COC(=O)c1c(-c2ccc(OCc3ccccc3)cc2)oc2ccc(OC)cc2c1=O,EC50,[1],> 25 µg/mL
same,EC50,[2],15.6 µg/mL
same,EC50,[3],22.1 µg/mL
same,EC50,[4],> 25 µg/mL
same,EC50,[5],20.9 µg/mL
COc1ccc2c(=O)c(C(=O)O)c(-c3ccc([N+](=O)[O-])cc3)oc2c1,EC50,[1],> 25 µg/mL
same,EC50,[2],> 25 µg/mL
same,EC50,[3],> 25 µg/mL
same,EC50,[4],> 25 µg/mL
same,EC50,[5],> 25 µg/mL
COc1cc(-c2cc(=O)c3cc(O)ccc3o2)cc(OC)c1O,EC50,[1],> 25 µg/mL
same,EC50,[2],> 25 µg/mL
same,EC50,[3],> 25 µg/mL
same,EC50,[4],> 25 µg/mL
same,EC50,[5],5.68 µg/mL
O=c1cc(-c2ccc([N+](=O)[O-])cc2)oc2c(O)c(O)ccc12,EC50,[1],4.69 µg/mL
same,EC50,[2],3.46 µg/mL
same,EC50,[3],2.56 µg/mL
same,EC50,[4],3.61 µg/mL
same,EC50,[5],3.29 µg/mL
O=C(O)c1c(-c2ccc([N+](=O)[O-])cc2)oc2ccccc2c1=O,EC50,[1],> 25 µg/mL
same,EC50,[2],> 25 µg/mL
same,EC50,[3],> 25 µg/mL
same,EC50,[4],> 25 µg/mL
same,EC50,[5],> 25 µg/mL
COC(=O)c1c(-c2ccc(O)cc2)oc2cc(OC)ccc2c1=O,EC50,[1],> 25 µg/mL
same,EC50,[2],19.2 µg/mL
same,EC50,[3],> 25 µg/mL
same,EC50,[4],20.1 µg/mL
same,EC50,[5],19.6 µg/mL
O=C(O)c1c(-c2ccc(Br)cc2)oc2ccccc2c1=O,EC50,[1],> 25 µg/mL
same,EC50,[2],> 25 µg/mL
same,EC50,[3],> 25 µg/mL
same,EC50,[4],> 25 µg/mL
same,EC50,[5],> 25 µg/mL
O=c1cc(-c2ccc([N+](=O)[O-])cc2)oc2cc(O)ccc12,EC50,[1],> 25 µg/mL
same,EC50,[2],6.95 µg/mL
same,EC50,[3],21.8 µg/mL
same,EC50,[4],> 25 µg/mL
same,EC50,[5],> 25 µg/mL
COc1ccc2oc(-c3ccc(O)cc3)c(C(=O)O)c(=O)c2c1,EC50,[1],> 25 µg/mL
same,EC50,[2],> 25 µg/mL
same,EC50,[3],> 25 µg/mL
same,EC50,[4],> 25 µg/mL
same,EC50,[5],> 25 µg/mL
CC(C)(C)[Si](C)(C)Oc1ccc(-c2cc(=O)c3ccc(O)cc3o2)cc1,EC50,[1],4.66 µg/mL
same,EC50,[2],3.61 µg/mL
same,EC50,[3],6.45 µg/mL
same,EC50,[4],> 10 µg/mL
same,EC50,[5],5.64 µg/mL
O=c1cc(-c2cccc(O)c2)oc2ccc(O)cc12,EC50,[1],> 25 µg/mL
same,EC50,[2],> 25 µg/mL
same,EC50,[3],> 25 µg/mL
same,EC50,[4],> 25 µg/mL
same,EC50,[5],> 25 µg/mL
COc1cc(-c2cc(=O)c3ccc(OC(C)=O)cc3o2)cc(OC)c1O,EC50,[1],> 25 µg/mL
same,EC50,[2],> 25 µg/mL
same,EC50,[3],> 25 µg/mL
same,EC50,[4],> 25 µg/mL
same,EC50,[5],> 25 µg/mL
COC(=O)c1c(-c2ccc([N+](=O)[O-])cc2)oc2cc(OC)ccc2c1=O,EC50,[1],> 25 µg/mL
same,EC50,[2],> 25 µg/mL
same,EC50,[3],> 25 µg/mL
same,EC50,[4],1.12 µg/mL
same,EC50,[5],2.84 µg/mL
COc1cc(-c2cc(=O)c3c(O)cccc3o2)cc(OC)c1O,EC50,[1],0.51 µg/mL
same,EC50,[2],> 25 µg/mL
same,EC50,[3],0.74 µg/mL
same,EC50,[4],> 25 µg/mL
same,EC50,[5],> 25 µg/mL
COc1cc(-c2cc(=O)c3cc(O)ccc3o2)cc(OC)c1OC,EC50,[1],> 25 µg/mL
same,EC50,[2],7.85 µg/mL
same,EC50,[3],9.82 µg/mL
same,EC50,[4],> 25 µg/mL
same,EC50,[5],5.87 µg/mL
COc1ccc2c(=O)cc(-c3cc(OC)c(OC)c(OC)c3)oc2c1,EC50,[1],> 25 µg/mL
same,EC50,[2],> 25 µg/mL
same,EC50,[3],> 25 µg/mL
same,EC50,[4],> 25 µg/mL
same,EC50,[5],> 25 µg/mL
COc1ccc(-c2oc3ccccc3c(=O)c2C(=O)O)cc1OC,EC50,[1],> 25 µg/mL
same,EC50,[2],> 25 µg/mL
same,EC50,[3],> 25 µg/mL
same,EC50,[4],> 25 µg/mL
same,EC50,[5],> 25 µg/mL
COc1cc(-c2cc(=O)c3ccc(O)cc3o2)cc(OC)c1O,EC50,[1],> 25 µg/mL
same,EC50,[2],6.5 µg/mL
same,EC50,[3],> 25 µg/mL
same,EC50,[4],> 25 µg/mL
same,EC50,[5],> 25 µg/mL
COC(=O)c1c(-c2ccc(NC(C)=O)cc2)oc2cc(OC)ccc2c1=O,EC50,[1],9.19 µg/mL
same,EC50,[2],8.21 µg/mL
same,EC50,[3],9.76 µg/mL
same,EC50,[4],9.26 µg/mL
same,EC50,[5],15.9 µg/mL
